Results: patent publication US20180036231A1, “PREVENTION OF AND RECOVERY FROM DRUG-INDUCED OTOTOXICITY” (Otonomy, Inc., priority 2011, published 2018)
Read-outs that look alike come from different tables or passages of the source. Each block holds one molecule with its values, some of them ahead of it.

Tests used:
[1] = Inner ear (perilymph) pharmacokinetics after intratympanic administration in guinea pigs; settings: for methylprednisolone peak level in the perilymph: intratympanic administration of hydrogel
Protocol: (§2) Female guinea pigs (Charles River) weighing 200-300 g, of approximately 6-8 weeks of age are used (N=4 per group). Prior to any procedure, animals are anesthetized using a combination of xylazine (10 mg/kg), ketamine (40 mg/kg) and acepromazine (0.75 mg/kg) for up to an hour via the intramuscular route. If needed, an intraoperative booster is administered intraperitoneally representing one-tenth of the original dose. Intratympanic injection—Each animal is positioned so that the head is tilted at an angle to favor injection towards the round window niche. Briefly, under visualization with an operating microscope, 50 μl of formulations comprising 0.2-6% dexamethasone and varying concentrations of P407 are administered to the animals. […] During the procedure and until recovery, animals are placed on a temperature controlled (40° C.) heating pad until consciousness is regained at which time they are returned to the vivarium.
(§3) The skin behind the ear of anesthetized guinea pigs is shaved and disinfected with povidone-iodine. An incision is then made behind the ear, and muscles are carefully retracted from over the bulla. A hole is drilled though the bulla using a dental burr so that the middle ear is exposed and accessible. The cochlea and the round window membrane are visualized under a stereo surgical microscope. A unique microhole is hand drilled through the bony shell of the cochlea (active capsule) adjacent to the round window. Perilymph (5 μl) is then collected using a microcapillary inserted into the cochlear scala tympani.

[2] = tested on: noise induced hearing loss; assay: Acoustic trauma / noise induced hearing loss model, intratympanic injection, hearing by ABR; type: in vivo, guinea pig; settings: thermoreversible gel formulation, prophylactic intratympanic administration
Protocol: (§1) The hearing of the animal is tested by recording the brainstem activity in response to a known auditory stimulus. (ABR: Auditory Brainstem Response) at various time points. This measurement is performed under general anesthesia. During the procedure the animal is placed on a heating pad (40° C.) in a sound proof booth and an earphone is fitted loosely into one ear at a time. Three subcutaneous needle electrodes are used to measure the brainstem activity. One is placed behind the ear with the earphone, one on the vertex of the skull and one in the hindleg. The recording then takes place, where the audio stimulus is applied at different frequencies and hearing thresholds, and the brainstem activity recorded.
Following the procedure described in Example 9, a dexamethasone formulation is administered to guinea pigs prior to exposure to acoustic trauma. Hearing is evaluated as described in Example 8 above.
Following the procedure described in Example 9, a SP600125 formulation is administered to guinea pigs prior to exposure to acoustic trauma. Hearing is evaluated as described in Example 9 above.

[3] = In vitro dissolution / mean dissolution time (MDT) of active agent from formulation; type: physicochemical
Protocol: The release profile of compositions suitable for methods described herein is optionally determined using dissolution techniques. In one embodiment, dissolution is performed at 37° C. in snapwells (6.5 mm diameter polycarbonate membrane with a pore size of 0.4 μm), 0.2 mL of a gel formulation described herein (e.g., a gel formulation of Example 1) is placed into snapwell and left to harden, then 0.5 mL buffer is placed into reservoir and shaken using a Labline orbit shaker at 70 rpm. Samples are taken every hour (0.1 mL withdrawn and replace with warm buffer). Samples are analyzed for active agent concentration by UV at 245 nm against an external calibration standard curve. Pluronic concentration is analyzed at 624 nm using the cobalt thiocyanate method. Relative rank-order of mean dissolution time (MDT) as a function of % P407 is determined. […] A non-linear relationship indicates release of active agent via a combination of diffusion and/or polymer gel degradation.
The MDT is inversely proportional to the release rate of an active agent from a composition described herein. Experimentally, the released active agent is optionally fitted to the Korsmeyer-Peppas equation: […]
where Q is the amount of active agent released at time t, Qα is the overall released amount of active agent, k is a release constant of the nth order, n is a dimensionless number related to the dissolution mechanism and b is the axis intercept, characterizing the initial burst release mechanism wherein n=1 characterizes an erosion controlled mechanism. The mean dissolution time (MDT) is the sum of different periods of time the drug molecules stay in the matrix before release, divided by the total number of molecules and is optionally calculated by: […]
In alternate embodiments, samples are analyzed using the method described by Li Xin-Yu paper [Acta Pharmaceutica Sinica 2008, 43(2):[…]] and Rank-order of mean dissolution time (MDT) as a function of % P407 is determined.

[4] = tested on: Cisplatin induced hearing loss; assay: Cisplatin induced ototoxicity model, intratympanic injection, hearing by ABR; type: in vivo, guinea pig
Protocol: Intratympanic injection of a formulation of Example 1 is administered the day before cisplatin administration. The lower right quadrant of the abdomen is shaved 1 inch and swabbed with alcohol. A tiny (2-3 mm) incision is made on the abdomen and a 21 G blunt needle is used to penetrate the abdominal wall and into the intraperitoneal cavity. The needle will be connected to an infusion bag containing cisplatin for a slow infusion of 15-30 minutes in the range of 5-15 mg/kg. The incision site is closed using sterile staples. Animals will be placed on a warming pad during the infusion and while recovering. In addition, animals receive twice daily IP injection of saline solution for 3 days to prevent nephrotoxicity.
as §1, with “One is placed behind the ear with the earphone, one on the vertex of the skull and one in the hindleg.” left out

[5] = female, guinea pig, in vivo
Protocol: as §2, §3

[6] = intratympanic administration in hydrogel vehicle

Molecule: O=C1c2ccccc2-c2n[nH]c3cccc1c23 [SP600125, anthra[1,9-cd]pyrazol-6(2H)-one]
protection against acoustic trauma / prevention of hearing loss [2]: preventing hearing loss due to acoustic trauma

Molecule: IGF-1: insulin-like growth factor, trophic agent/growth factor (PeproTech)
protection against acoustic trauma / prevention of hearing loss [2]: protects against acoustic trauma

Molecule: CC#C[C@]1(O)CC[C@H]2[C@@H]3CCC4=CC(=O)CCC4=C3[C@@H](c3ccc(N(C)C)cc3)C[C@@]21C [Mifepristone]
effect on dexamethasone gel protection against acute cisplatin ototoxicity ([4]; 6.0% mifepristone + 6.0% dexamethasone gel, intratympanic, one day before cisplatin 12 mg/kg): antagonizes dexamethasone gel protection

Molecule: CC(=O)OCC(=O)[C@@]1(O)[C@H](C)C[C@H]2[C@@H]3CCC4=CC(=O)C=C[C@]4(C)[C@@]3(F)[C@@H](O)C[C@@]21C [DA, Dexamethasone acetate]
inner ear exposure, dexamethasone in perilymph (AUC) [5]: 84000 to 359000 ng·h/mL
residence time in inner ear compartment (MRT) [5]: 17 to 82 h

The next lines start with results.

methylprednisolone peak level in the perilymph [1]: 19.2 µg/mL
decline of perilymph levels after peak (in words) ([1]; intratympanic hydrogel): decreased slowly over 10 days
Molecule: C[C@H]1C[C@@H]2[C@H]([C@@H](O)C[C@@]3(C)[C@H]2CC[C@]3(O)C(=O)CO)[C@@]2(C)C=CC(=O)C=C12 [MP, methylprednisolone]

methylprednisolone peak level in the perilymph [1]: 6.5 µg/mL
perilymph level as fraction of the peak levels ([1]; within 3 days after intratympanic hydrogel): 0.8-1.0%
MDT (mean dissolution time) ([3]; 17% Poloxamer 407 formulation): about 3 h
Molecule: C[C@H]1C[C@@H]2[C@H]([C@@H](O)C[C@@]3(C)[C@H]2CC[C@]3(O)C(=O)COC(=O)CCC(=O)[O-])[C@@]2(C)C=CC(=O)C=C12.[Na+] [MPS]

inner ear exposure, dexamethasone in perilymph (AUC) [1, 6]: 28000 to 57000 ng·h/mL
residence time in inner ear compartment (MRT) [1, 6]: 4 to 7 h
MDT (mean dissolution time) ([3]; 17% Poloxamer 407 formulation): about 3 h
MDT (mean dissolution time) ([3]; aqueous solution): 0.3 h
Molecule: C[C@@H]1C[C@H]2[C@@H]3CCC4=CC(=O)C=C[C@]4(C)[C@@]3(F)[C@@H](O)C[C@]2(C)[C@@]1(O)C(=O)COP(=O)([O-])[O-].[Na+].[Na+] [DSP]
auditory function versus saline control, acute cisplatin ototoxicity ([4]; 2.0% solution, single bilateral intratympanic injection one day before cisplatin 12 mg/kg, Day 7 post cisplatin): No significant differences
